This note sets out measurements from patent US7858665B2, “Drugs for chronic pain” (Nicox S.A., priority 2002, dated 2010).

Molecules are shown by their SMILES.

The subject of test [1] is male Swiss mice. Nature of the test: Writhing test (acetic acid-induced abdominal contractions). It is filed as in vivo. The following applies: for Contractions number: 1 h before i.p. acetic acid, total contractions within 15 minutes. How it is done: Nine groups of male Swiss mice (20-25 g, Charles River), 10 animals each, received by oral administration through gastric tube (gavage) gabapentin in an amount of from 1 to 10 mg/kg or the compound of the invention (XVA, Example 1), hereinafter NO-gabapentin, in an amount of from 1 to 10 mg/kg dissolved in saline solution. One hour after administration of the compound solutions, through intraperitoneal injection the mice received a glacial acetic acid solution (0.5 ml, 0.6%). Within 15 minutes subsequent to the administration of acetic acid, in every animal the number of abdominal contractions was counted. Analysis was carried out in blind.
The results reported in Table 1 are given as the number of total contractions within the observation time (15 minutes).
On the technique in general: In writhing tests, fewer writhes than in controls are read as antinociception.

Test [2] deals with male Swiss mice. The experiment in a line: Paw licking test (formalin injected in paw). It is filed as in vivo. The following applies: for paw licking Phase I: phase I 0-15 minutes after formalin; for paw licking Phase I / paw licking Phase II: 3 mg/kg oral (gabapentin 17.5 μm/kg, NO-gabapentin 8.5 μm/kg), 1 h before formalin; for paw licking Phase II: phase II 15-30 minutes after formalin. How it is done:
Three groups of male Swiss mice (20-25 g, Charles River), 10 animals each, received by oral administration as in Example F1 gabapentin in an amount of 3 mg/kg (17.5 μm/kg) or the compound of formula (XVA, Example 1), hereinafter NO-gabapentin, in an amount of 3 mg/kg (8.5 μm/kg) dissolved in saline solution. The control group received an equal volume of saline solution. One hour after administration of the compound solutions, the mice were injected with formalin in the paw (10 μl).
The formalin injection induced a biphasic reaction. In first phase (phase I, 0-15 minutes) an acute inflammation was observed; in the second phase (phase II, 15-30 minutes) a release of chemical mediators occurred as in neurophatic pain. Within 30 minutes subsequent to formalin injection, in each animal the time in seconds in which the animal licked its paw was recorded. Analysis was carried out in blind.
The results reported in Table 2 are expressed as the entire time in seconds in which paw licking in animals during the first and second phase as defined above was observed.

Test [3] deals with chronic constriction injury of the rat sciatic nerve. Nature of the test: Neuropathic pain model: chronic constriction injury of the rat sciatic nerve, vocalization threshold to paw pressure. The following applies: for Vocalization threshold to pressure in the injured paw (VTPP): 175 μmoles/kg, ip, day 14 post lesion. Type of test: in vivo. The source says:
We have tested the antinoceptive effects of compound of formula (XVA, Example 1), hereinafter NO-gabapentin, in the model of neuropathic pain constituted by the chronic constriction injury of the rat sciatic nerve. The parent compound gabapentin has been used as reference drug.
The unilateral peripheal mononeuropathy was obtained according to the method described by Bennet G J and Xie Y K, Pain (33) 1988: 87-107. Sample populations ranging from 8 to 12 rats (SD males weighting 250-300 g) for condition were used. The antinoceptive effect of the drugs was determined by measuring the vocalization threshold (VTPP) elicited by paw pressure both at the injured and at the controlateral side. The test was performed at day 14 post lesion. All compounds were tested for acute antinoceptive effects. Acute effects were determined within 60 min following a single intraperitoneal (i.p.) injection of the drugs prior to the test.
Each group of the rats received gabapentin at the dose of 30 mg/kg (175 μmoles/kg), or an equimolar dose of NO-gabapentin (175 μmoles/kg), or the same volume of vehicle (Control group). The drugs were dissolved (20 mg/mL) in vehicle containing saline: DMSO: Castor oil (68:8:24).

The subject of test [4] is human umbilical vein cells. Nature of the test: NO generation by NO-donors in endothelial cells (chemiluminescence). It is filed as cell-based. The following applies: incubation of 100 μl nicorandil, 5 minutes. How it is done:
Plated human umbilical vein cells with density of 10^3 cells/well, have been incubated 5 minutes with NO-donor scalar concentrations (1-100 μg/ml). Incubation medium (physiological solvent, i.e. Tyrode) has been then analysed to ascertain the ability to generate NO by means of: 1) nitric oxide detection by chemiluminescence, As far as chemiluminescence analysis is concerned, a 100 μl aliquot has been injected into reaction chamber of an chemiluminescence analyzer containing glacial acetic acid and potassium iodide. […] As usual in devices measuring chemiluminescence, the produced luminescence is directly proportional to the generated NO levels and can be measured by means of the suitable photomultiplier unity of an chemiluminescence analyzer. The photomultiplier turns incident light into electric voltage, that then is quantitatively registered. Referring to a calibration curve, obtained with scalar nitrite concentrations, it has been possible to quantitatively evaluate the concentration of the generated NO. For example, from incubation of […], an amount of about 10 μM NO was generated.

In the next test the test system is washed human platelets. The experiment in a line: NO generation by NO-donors in platelets (chemiluminescence). It is filed as cell-based. The following applies: incubation of 100 μM, 5 minutes. As to the method: Washed human platelets have been used, obtained as described by Radomski et al., (Br. J. Pharmacol. 92, 639-1987). Amounts of 0.4 ml were incubated 5 minutes with scalar NO-donor concentrations (1-100 μg/ml). […] As to the chemiluminescence assay, also in this case on the basis of a calibration curve plotted with nitrite scalar concentrations, it has been possible to quantitatively define the concentration of the generated NO. For example, after incubation of 100 μM nicorandil, an amount of 35 μM of NO was generated.

Consider `NCC1(CC(=O)O)CCCCC1` [Gabapentin, 1-(aminomethyl)cyclohexaneacetic acid, reference compound], for which the Contractions number with male Swiss mice [1] (dose 1 mg/kg oral) was found to be 32; in the test with male Swiss mice [1] (dose 3 mg/kg oral), 22; in the test on male Swiss mice [1] (dose 10 mg/kg oral), 27. Moreover, the “paw licking Phase I” value in the test on male Swiss mice [2] came to 85 s. Also, the “paw licking Phase II” value in the test with male Swiss mice [2] was determined as 30 s. Further, the “Vocalization threshold to pressure in the injured paw (VTPP)” value in test [3] (0 min post-dosing) turned out to be 160 ± 10 grams; in test [3] (5 min post-dosing), 165 ± 23 grams; in test [3] (10 min post-dosing) it was 191 ± 29 grams; in test [3] (20 min post-dosing), 250 ± 24 grams; in test [3] (40 min post-dosing), 266 ± 26 grams; in test [3] (60 min post-dosing) it was 250 ± 38 grams.

Take `O=C(O)CC1(CNC(=O)c2ccc(CO[N+](=O)[O-])cc2)CCCCC1` [NO-gabapentin, 1-[4-(nitrooxymethyl)benzoylaminomethyl]-cyclohexaneacetic acid]: in the test on male Swiss mice [1] (1 to 10 mg/kg oral), the “activity in inhibiting abdominal contraction amount, compared with gabapentin” value was “more active than precursor drug”. In addition, the figures for the Contractions number in the test with male Swiss mice [1] (dose 1 mg/kg oral), in the test on male Swiss mice [1] (dose 3 mg/kg oral) and in the test with male Swiss mice [1] (dose 10 mg/kg oral) were 24, 15 and 15, respectively. Further, the “paw licking Phase I” value with male Swiss mice [2] worked out at 50 s. Further, the “activity in inhibiting paw licking in first phase, compared with gabapentin” value in the test on male Swiss mice [2] (phase I, molar dose corresponding to 50% of gabapentin) is “more active than the starting drug”. In the test with male Swiss mice [2], the “paw licking Phase II” value is 60 s. Also, the “effectiveness in second phase, compared with gabapentin” value in the test on male Swiss mice [2] (phase II, molar dose corresponding to 50% of gabapentin) is “less effective”. In addition, the “Vocalization threshold to pressure in the injured paw (VTPP)” value in test [3] (0 min post-dosing) is 153 ± 10 grams; in test [3] (5 min post-dosing), 187 ± 10 grams; in test [3] (10 min post-dosing), 307 ± 14 grams; in test [3] (20 min post-dosing), 325 ± 08 grams; in test [3] (40 min post-dosing), 390 ± 11 grams; in test [3] (60 min post-dosing), 382 ± 09 grams. For the same compound, the “antinoceptive efficacy compared with gabapentin” value in test [3] (equimolar dose 175 μmoles/kg i.p.) is listed as “more efficacious than gabapentin”.

With `O=C(NCCO[N+](=O)[O-])c1cccnc1` [nicorandil], the “amount of NO generated” value was “about 10 μM” in test [4] and 35 µM in the test with washed human platelets.
